# Test results published in US8410144B2, “Substituted indolo-pyridinone compounds” (ArQule, Inc., priority 2009, dated 2013).
# Tests used:
# KATO III = experiment: MTS assay, KATO III cells; format: cell-based; conditions: Homo sapiens, 72 hours, read-out: KATO III, MTS cell kill % inhibition
# Summary of the method: (§1)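 First, seed 3000 cells per well in low-serum (1% FBS) DMEM and culture 18 h. Next, add compounds prepared at 300× in DMSO and diluted 1:40 in DMEM; incubate 72 h. Finally, add MTS/PMS for 4 h and measure absorbance at 492 nm.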
# IGF-1R = IGF-1R (Homo sapiens, UniProt P08069); experiment: IGFR1 activity assay (ELISA); format: biochemical; conditions: read-out: IGF-1R, PCT INH (30 μM), ELISA
# IGF-1R, sequence (P08069 31-1367): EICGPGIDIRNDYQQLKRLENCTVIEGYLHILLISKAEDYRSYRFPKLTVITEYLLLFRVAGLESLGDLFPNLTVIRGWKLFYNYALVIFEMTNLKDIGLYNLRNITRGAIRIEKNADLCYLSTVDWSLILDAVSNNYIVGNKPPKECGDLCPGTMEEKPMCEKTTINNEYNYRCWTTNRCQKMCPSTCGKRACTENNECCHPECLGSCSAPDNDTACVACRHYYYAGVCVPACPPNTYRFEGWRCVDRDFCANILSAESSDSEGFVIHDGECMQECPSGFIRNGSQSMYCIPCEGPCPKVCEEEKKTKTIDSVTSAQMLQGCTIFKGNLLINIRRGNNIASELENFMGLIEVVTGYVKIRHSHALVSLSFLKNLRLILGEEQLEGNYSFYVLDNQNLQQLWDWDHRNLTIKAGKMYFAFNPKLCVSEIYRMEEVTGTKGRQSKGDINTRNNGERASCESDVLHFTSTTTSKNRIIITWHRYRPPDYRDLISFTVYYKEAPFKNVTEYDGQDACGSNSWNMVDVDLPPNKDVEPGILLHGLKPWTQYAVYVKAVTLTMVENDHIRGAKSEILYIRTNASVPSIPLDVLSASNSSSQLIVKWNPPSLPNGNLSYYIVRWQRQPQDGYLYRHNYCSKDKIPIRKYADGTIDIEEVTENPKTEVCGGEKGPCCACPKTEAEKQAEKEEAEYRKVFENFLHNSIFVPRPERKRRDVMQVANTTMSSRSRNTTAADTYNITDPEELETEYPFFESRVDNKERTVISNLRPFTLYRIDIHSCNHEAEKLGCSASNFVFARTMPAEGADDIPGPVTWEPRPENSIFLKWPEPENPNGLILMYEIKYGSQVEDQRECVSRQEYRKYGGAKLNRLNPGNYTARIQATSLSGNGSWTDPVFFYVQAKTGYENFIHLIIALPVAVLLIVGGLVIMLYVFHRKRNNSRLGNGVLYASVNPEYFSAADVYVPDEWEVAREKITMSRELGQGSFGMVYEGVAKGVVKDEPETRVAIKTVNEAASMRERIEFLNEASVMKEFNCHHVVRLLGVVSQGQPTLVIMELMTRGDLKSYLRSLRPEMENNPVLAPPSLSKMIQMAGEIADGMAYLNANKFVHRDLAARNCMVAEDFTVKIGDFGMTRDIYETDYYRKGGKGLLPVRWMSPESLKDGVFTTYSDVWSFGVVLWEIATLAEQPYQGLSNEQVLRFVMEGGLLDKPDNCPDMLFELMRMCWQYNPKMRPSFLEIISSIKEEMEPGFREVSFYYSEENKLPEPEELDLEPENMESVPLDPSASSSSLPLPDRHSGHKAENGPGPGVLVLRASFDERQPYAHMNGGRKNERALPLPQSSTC
# Summary of the method: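 IGF1R (0.33 ng/μL final) phosphorylating Pyk-2 (0.05 ng/μL final) in buffer with 12.5 μM ATP, 10 mM MgCl2, 1 h room temperature. Product captured on streptavidin plates, detected with anti-phosphotyrosine and alkaline phosphatase secondary antibody, Attophos fluorescent readout.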
# MDA-MB-231 = experiment: MTS assay, MDA-MB-231 cells; format: cell-based; conditions: Homo sapiens, 72 hours, read-out: MDA-MB-231, MTS cell kill % inhibition
# Summary of the method: as §1
# NCI-H1299 = experiment: MTS assay, NCI-H1299 cells; format: cell-based; conditions: Homo sapiens, 72 hours, read-out: NCI-H1299, MTS cell kill % inhibition
# Summary of the method: as §1
# DLD-1 = experiment: MTS assay, DLD-1 cells; format: cell-based; conditions: Homo sapiens, 72 hours, read-out: DLD-1, MTS cell kill % inhibition
# Summary of the method: as §1
SMILES,inhibition at 10 µM (KATO III) [%],inhibition at 30 µM (IGF-1R) [%],inhibition at 10 µM (MDA-MB-231) [%],inhibition at 10 µM (NCI-H1299) [%],melting point [°C],inhibition at 10 µM (DLD-1) [%]
"CN1CCCC1CCNC(=O)c1ccc2[nH]c(-c3ccc[nH]c3=O)c(-c3ccccc3)c2c1 (stereo not drawn) [Compound 5, N-[2-(1-methylpyrrolidin-2-yl)ethyl]-2-(2-oxo-1,2-dihydropyridin-3-yl)-3-phenyl-1H-indole-5-carboxamide]",80 to 100,< 50,50 to 79,80 to 100,185 to 188,50 to 79
"O=C(c1ccc2[nH]c(-c3ccc[nH]c3=O)c(-c3ccc(-c4ccccc4)cc3)c2c1)N1CCN(c2ccccc2F)CC1 [Compound 36, 3-(3-biphenyl-4-yl-5-{[4-(2-fluorophenyl)piperazin-1-yl]carbonyl) -1H-indol-2-yl)pyridin-2(1H)-one]",< 50,< 50,50 to 79,< 50,137 to 144,< 50
"Cc1cc(C)cc(-c2c(-c3ccc[nH]c3=O)[nH]c3ccc(C(=O)NCCCN4CCOCC4)cc23)c1 [Compound 70, 3-(3,5-dimethylphenyl)-N-(3-morpholin-4-ylpropyl)-2-(2-oxo-1,2-dihydropyridin-3-yl)-1H-indole-5-carboxamide]",80 to 100,80 to 100,80 to 100,80 to 100,115 to 120,80 to 100
"Cc1ccccc1N(C)C(=O)c1ccc2[nH]c(-c3ccc[nH]c3=O)c(-c3ccccc3)c2c1 [Compound 16, N-methyl-N-(2-methylphenyl)-2-(2-oxo-1,2-dihydropyridin-3-yl)-3-phenyl-1H-indole-5-carboxamide]",80 to 100,80 to 100,< 50,50 to 79,216 to 220,50 to 79
"O=C(Nc1cccc(F)c1)c1ccc2[nH]c(-c3ccc[nH]c3=O)c(-c3ccccc3)c2c1 [Compound 13, N-(3-fluorophenyl)-2-(2-oxo-1,2-dihydropyridin-3-yl)-3-phenyl-1H-indole-5-carboxamide]",80 to 100,50 to 79,50 to 79,80 to 100,176 to 182,80 to 100
"O=C(NCCCN1CCOCC1)c1ccc2[nH]c(-c3ccc[nH]c3=O)c(-c3cc4cccc5c4n3CCC5)c2c1 [Compound 8, 3-(5,6-dihydro-4H-pyrrolo[3,2,1-ij]quinolin-2-yl)-N-(3-morpholin-4-ylpropyl)-2-(2-oxo-1,2-dihydropyridin-3-yl)-1H-indole-5-carboxamide]",80 to 100,50 to 79,80 to 100,80 to 100,181 to 189,80 to 100
"COC(=O)c1ccc2[nH]c(-c3ccc[nH]c3=O)c(-c3ccc(-c4ccccc4)cc3)c2c1 [Compound 9, methyl 3-biphenyl-4-yl-2-(2-oxo-1,2-dihydropyridin-3-yl)-1H-indole-5-carboxylate]",< 50,< 50,< 50,< 50,> 300,< 50
"O=C(Nc1cccc(Cl)c1)c1ccc2[nH]c(-c3ccc[nH]c3=O)c(-c3ccccc3)c2c1 [Compound 22, N-(3-chlorophenyl)-2-(2-oxo-1,2-dihydropyridin-3-yl)-3-phenyl-1H-indole-5-carboxamide]",80 to 100,50 to 79,50 to 79,50 to 79,244 to 250,80 to 100
"CN(C)CCCN(C)C(=O)c1ccc2[nH]c(-c3ccc[nH]c3=O)c(-c3ccccc3)c2c1 [Compound 27, N-[3-(dimethylamino)propyl]-N-methyl-2-(2-oxo-1,2-dihydropyridin-3-yl)-3-phenyl-1H-indole-5-carboxamide]",80 to 100,80 to 100,50 to 79,50 to 79,125 to 128,50 to 79
"O=C(Nc1ccccc1F)c1ccc2[nH]c(-c3ccc[nH]c3=O)c(-c3ccccc3)c2c1 [Compound 15, N-(2-fluorophenyl)-2-(2-oxo-1,2-dihydropyridin-3-yl)-3-phenyl-1H-indole-5-carboxamide]",80 to 100,80 to 100,50 to 79,50 to 79,> 300,80 to 100
"CCc1ccc(-c2c(-c3ccc[nH]c3=O)[nH]c3ccc(C(=O)NCCCN4CCOCC4)cc23)cc1 [Compound 65, 3-(4-ethylphenyl)-N-(3-morpholin-4-ylpropyl)-2-(2-oxo-1,2-dihydropyridin-3-yl)-1H-indole-5-carboxamide]",80 to 100,80 to 100,50 to 79,80 to 100,143 to 145,80 to 100
"Cc1cccc(-c2c(-c3ccc[nH]c3=O)[nH]c3ccc(C(=O)NCCCN4CCOCC4)cc23)c1 [Compound 78, 3-(3-methylphenyl)-N-(3-morpholin-4-ylpropyl)-2-(2-oxo-1,2-dihydropyridin-3-yl)-1H-indole-5-carboxamide]",< 50,80 to 100,< 50,50 to 79,120 to 122,50 to 79
"CN(C)CCCNCc1ccc2[nH]c(-c3ccc[nH]c3=O)c(-c3ccc(-c4ccccc4)cc3)c2c1 [Compound 54, 3-[3-biphenyl-4-yl-5-({[3-(dimethylamino)propyl]amino}methyl)-1H-indol-2-yl]pyridin-2(1H)-one]",< 50,< 50,50 to 79,< 50,160 to 166,50 to 79
"O=C(NCCCN1CCOCC1)c1ccc2[nH]c(-c3ccc[nH]c3=O)c(Br)c2c1 [Compound 56, 3-bromo-N-(3-morpholin-4-ylpropyl)-2-(2-oxo-1,2-dihydropyridin-3-yl)-1H-indole-5-carboxamide]",< 50,80 to 100,< 50,< 50,138 to 142,< 50
